In PMC11457795 (Cell chemical biology, 2024) one finds IC50 data, which are given here for 1 compound.

The target in the test is PfMAGL (Plasmodium falciparum, UniProt Q8IJ22). The test is described as follows: fluorogenic 4-methylumbelliferyl caprylate hydrolysis assay, […] min preincubation. It counts as biochemical.

The IC50 is the concentration needed to halve the response being measured. On to `C#CCCCCP(=O)(OCC)Oc1ccc(S(=O)(=O)F)cc1` (racemic) [compound 2, ethyl (4-(fluorosulfonyl)phenyl) hex-5-yn-1-ylphosphonate], for which the IC50 was 0.02 µM.
